In publication PMC5963757, “Expression, purification, and inhibition profile of dihydrofolate reductase from the filarial nematode Wuchereria bancrofti” (PLoS ONE, 2018):
Where “and” joins values, the source holds several entries; their conditions need not be identical. Identical values can stand only once. Entries after “also recorded” stand apart in the source; their conditions may differ. Like-named read-outs stand apart in the source and are kept apart here.

Legend:
WbDHFR [1] = biological target: T1, WbDHFR (Wuchereria bancrofti, UniProt J9F199); assay type: biochemical; conditions: for inhibition of WbDHFR (in words): pH 6.0, 25°C
Method: (§1) Compounds (-)-epicatechin, (-)-epicatechin gallate, and vitexin were tested as inhibitors of WbDHFR and BmDHFR. The compounds (-)-epicatechin and (-)-epicatechin gallate were synthesized as described previously. […] Disappearance of DHF and NADPH was observed by measuring absorbance at 340 nm to measure the DHFR activity in a SpectraMax M3 microplate reader. […] All experiments were completed in triplicate.

BmDHFR [2] = biological target: T2, BmDHFR (Brugia malayi, UniProt A0A4E9FIQ4); parameters: method as in PMID 26669020; conditions: computational prediction, cited from earlier work
BmDHFR [3] = biological target: T2, BmDHFR; experiment: biochemical; assay type: biochemical; conditions: for inhibition of BmDHFR (in words): pH 6.0, 25°C
Method: as §1
A linear equation was fitted to the data at each substrate concentration. […] The KI values for BmDHFR in Table 1 were obtained using the Cheng-Prusoff Equation [18]. […] Inhibitor structures are shown in supporting information (S2 Fig).

BmDHFR [4] = biological target: T2, BmDHFR; conditions: read-out: KM previously determined for BmDHFR; cited from earlier work
WbDHFR [5] = biological target: T1, WbDHFR; experiment: Michaelis-Menten kinetics of WbDHFR, KM for DHF; assay type: biochemical; conditions: pH 6.0, 25°C, 100 μM NADPH, MTEN buffer; ± S.D.
Method: To characterize DHFR enzymatic activity, we measured absorbance at 340 nm to follow the disappearance of DHF substrate and NADPH cofactor over time. The KM of WbDHFR for DHF was determined over a concentration range of 3.8 to 195 μM DHF, at 25°C, in MTEN buffer (50 mM 2-morpholinoethane sulphonic acid (MES), 25 mM Tris, 25 mM ethanolamine, 100 mM NaCl, and 1mM DTT) at pH 6.0. Initial velocity was plotted as a function of DHF concentration using KaleidaGraph and the Michaelis-Menten equation was fitted to the data. Catalytic activities of WbDHFR and BmDHFR were determined at various pH values (5.5–9.0) in MTEN buffer. The MTEN buffer used for all the reported assays has essentially a constant ionic strength at 0.15 over the pH range for which pH values were measured. Initial velocity was plotted as a function of pH using Excel.
Fig 2 Representative Michaelis-Menten curve. The conditions in the experimental wells (200 μL) were 100 μM NADPH, 12.4 nM WbDHFR in 1 X MTEN buffer at pH 6.0 with DHF concentrations ranging from 0 to 195 μM. The Michaelis-Menten equation was fitted to the data using KaleidaGraph. The Michaelis-Menten constant for DHF was determined by averaging values from fitting three separate data sets and found to be 3.7 ± 2.0 μM (S.D.).

BmDHFR [6] = biological target: T2, BmDHFR; parameters: method as in PMID 27544923; conditions: read-out: IC50 BmDHFR found previously; cited from earlier work
[7] = IC50 BmDHFR, pH 6.0, 100 μM NADPH, 50 μM DHF, 40 nM BmDHFR, average of triplicates ± S.D.
[8] = read-out: predicted KI against BmDHFR
[9] = pH 6.0, 100 μM NADPH, 50 μM DHF, 40 nM BmDHFR, average of triplicates ± S.D., read-out: IC50 BmDHFR
[10] = average of three trials, read-out: IC50 against BmDHFR Average
[11] = individual trial, read-out: IC50 against BmDHFR Trial 1
[12] = individual trial, read-out: IC50 against BmDHFR Trial 2
[13] = obtained using the Cheng-Prusoff Equation, upper limit for tight-binding inhibitors, read-out: KI BmDHFR
[14] = IC50 against BmDHFR Average, average of three trials
[15] = IC50 against BmDHFR Trial 1, individual trial
[16] = IC50 against BmDHFR Trial 2, individual trial
[17] = IC50 against BmDHFR Trial 3, individual trial

In the case of O=c1cc(-c2ccc(O)cc2)oc2c([C@@H]3O[C@H](CO)[C@@H](O)[C@H](O)[C@H]3O)c(O)cc(O)c12 [Vitexin, vitexin], the “inhibition of WbDHFR (in words)” value (WbDHFR [1]) is listed as “did not observe inhibition”, the Ki (BmDHFR [2]; read-out: predicted inhibitor of BmDHFR) is listed as 0.465 µM and the IC50 (BmDHFR [3]; [7]) is listed as > 240 µM. The “inhibition of BmDHFR (in words)” value (BmDHFR [3]) was “did not observe any inhibition”.
In the case of (-)-epicatechin gallate, the IC50 (WbDHFR [1]; pH 6.0, 100 μM NADPH, 50 μM DHF, 12.1 nM WbDHFR, average of triplicates ± S.D., read-out: IC50 WbDHFR) is listed as > 1000 µM, the “inhibition of WbDHFR (in words)” value (WbDHFR [1]) is listed as “did not observe inhibition; also recorded: neither compound showed any inhibitory activity” and the Ki (BmDHFR [2]; [8]) is listed as 48 µM. For the same molecule, the IC50 (BmDHFR [3]; [9]) was > 1000 µM and the “inhibition of BmDHFR (in words)” value (BmDHFR [3]) was “did not observe inhibition; also recorded: neither compound showed any inhibitory activity”.
With CN(Cc1cnc2nc(N)nc(N)c2n1)c1ccc(C(=O)N[C@@H](CCC(=O)O)C(=O)O)cc1 [Methotrexate, methotrexate] the “inhibition of WbDHFR (in words)” value (WbDHFR [1]) was “inhibit”.
With Cc1nc2ccc(CN(C)c3ccc(C(=O)N[C@@H](CCC(=O)O)C(=O)O)s3)cc2c(=O)[nH]1 [Raltitrexed, raltitrexed] the “inhibition of WbDHFR (in words)” value (WbDHFR [1]) was “inhibit”, the IC50 (BmDHFR [3]; [10]) was 7.3 µM and the IC50 (BmDHFR [3]; [11]) was 7.1 µM. The IC50 (BmDHFR [3]; [12]) was 6.83 µM, the Ki (BmDHFR [3]; [13]) was 1.6 ± 0.04 µM and the IC50 (BmDHFR [3]; [9]) was 7.3 ± 0.2 µM.
With Nc1nc(N)c2nc(CNc3ccc(C(=O)N[C@@H](CCC(=O)O)C(=O)O)cc3)cnc2n1 [Aminopterin, aminopterin] the “inhibition of WbDHFR (in words)” value (WbDHFR [1]) was “inhibit”, the Ki (BmDHFR [3]) was < 0.0017 µM and the IC50 (BmDHFR [3]; [7]) was 0.0075 ± 0.0003 µM. It also gave an IC50 (BmDHFR [3]; [14]) of 0.00755 µM, an IC50 (BmDHFR [3]; [15]) of 0.0072 µM and an IC50 (BmDHFR [3]; [16]) of 0.0076 µM. It also gave an IC50 (BmDHFR [3]; [17]) of 0.00784 µM.
For Nc1nc(=O)c2c([nH]1)NCC(CNc1ccc(C(=O)N[C@@H](CCC(=O)O)C(=O)O)cc1)=N2 [DHF, dihydrofolate], the Km (BmDHFR [4]) is given as 14.7 ± 3.6 µM and the Km (WbDHFR [5]) is given as 3.7 ± 2 µM.
In the case of Oc1cc(O)c2c(c1)O[C@H](c1ccc(O)c(O)c1)[C@H](O)C2 [(-)-Epicatechin, (-)-epicatechin], the “inhibition of WbDHFR (in words)” value (WbDHFR [1]) is listed as “did not observe inhibition; also recorded: neither compound showed any inhibitory activity”, the Ki (BmDHFR [2]; [8]) is listed as 76 µM and the IC50 (BmDHFR [3]; [9]) is listed as > 2500 µM. For the same molecule, the “inhibition of BmDHFR (in words)” value (BmDHFR [3]) was “did not observe inhibition; also recorded: neither compound showed any inhibitory activity”.
In the case of CCc1nc(N)nc(N)c1-c1ccc(Cl)cc1 [Pyrimethamine, pyrimethamine], the “inhibition of WbDHFR (in words)” value (WbDHFR [1]) is given as “inhibit”, the IC50 (BmDHFR [6]) is given as 109 ± 34 µM and the IC50 (BmDHFR [3]; [10]) is given as 16 µM. For the same molecule, the IC50 (BmDHFR [3]; [11]) was 16.4 µM, the IC50 (BmDHFR [3]; [12]) was 21.8 µM and the IC50 (BmDHFR [3]; individual trial, read-out: IC50 against BmDHFR Trial 3) was 8.7 µM. The Ki (BmDHFR [3]; [13]) was 3.6 ± 1.5 µM and the IC50 (BmDHFR [3]; [9]) was 15.6 µM and 16 µM.
For COc1cc(Cc2cnc(N)nc2N)cc(OC)c1OC [Trimethoprim, trimethoprim], the “inhibition of WbDHFR (in words)” value (WbDHFR [1]) is listed as “inhibit”, the Ki (BmDHFR [2]; [8]) is listed as 11 µM and the Ki (BmDHFR [3]) is listed as 15 ± 3 µM. For the same molecule, the IC50 (BmDHFR [3]; [7]) was 65 ± 13 µM, the IC50 (BmDHFR [3]; [14]) was 64.7 µM and the IC50 (BmDHFR [3]; [15]) was 80.4 µM. The IC50 (BmDHFR [3]; [16]) was 61.1 µM and the IC50 (BmDHFR [3]; [17]) was 48.9 µM.
